Test results published in the NIST ThermoML archive (doi:10.1016/j.jct.2008.10.002).
± gives the expanded uncertainty stated by the source.

Columns and labels:
[1] = molar heat capacity at constant pressure; conditions: 101.33 kPa, Liquid, Small sample (50 mg) DSC
[2] = 101.33 kPa, Liquid, Vibrating tube method
[3] = excess molar enthalpy (molar enthalpy of mixing); xn = mol fraction of the nth substance listed; conditions: 303.15 K, 101.3 kPa, Liquid

| molar heat capacity at constant pressure ([1]; 293.15 K) | molar heat capacity at constant pressure ([1]; 298.15 K) | molar heat capacity at constant pressure ([1]; 303.15 K) | molar heat capacity at constant pressure ([1]; 308.15 K) | molar heat capacity at constant pressure ([1]; 313.15 K) | molar heat capacity at constant pressure ([1]; 318.15 K) | mass density ([2]; 308.15 K) | SMILES | mass density ([2]; 293.15 K) | mass density ([2]; 298.15 K) | mass density ([2]; 303.15 K) | mass density ([2]; 313.15 K) | mass density ([2]; 318.15 K) | excess molar enthalpy ([3]; x1 = 0.1023) | excess molar enthalpy ([3]; x1 = 0.2013) | excess molar enthalpy ([3]; x1 = 0.3036) | excess molar enthalpy ([3]; x1 = 0.4004) | excess molar enthalpy ([3]; x1 = 0.4891) | excess molar enthalpy ([3]; x1 = 0.5761) | excess molar enthalpy ([3]; x1 = 0.6659) | excess molar enthalpy ([3]; x1 = 0.8154) |
| --- | --- | --- | --- | --- | --- | --- | --- | --- | --- | --- | --- | --- | --- | --- | --- | --- | --- | --- | --- | --- |
|  |  |  |  |  |  |  | CCCC[n+]1cccc(C)c1.F[B-](F)(F)F [1-butyl-3-methylpyridinium tetrafluoroborate] + O |  |  |  |  |  | 0.261 ± 0.00574 kcal/mol | 0.421 ± 0.00884 kcal/mol | 0.514 ± 0.0108 kcal/mol | 0.554 ± 0.0115 kcal/mol | 0.543 ± 0.0112 kcal/mol | 0.497 ± 0.0105 kcal/mol | 0.428 ± 0.00908 kcal/mol | 0.256 ± 0.0055 kcal/mol |
| 392.2 ± 6.1 J/K/mol | 394.4 ± 6.1 J/K/mol | 396.8 ± 6.1 J/K/mol | 399.3 ± 6.2 J/K/mol | 402 ± 6.2 J/K/mol | 404.9 ± 6.3 J/K/mol | 1230.4 ± 0.4 kg/m3 | CCOS(=O)(=O)[O-].CCn1cc[n+](C)c1 [1-ethyl-3-methylimidazolium ethyl sulfate] | 1240.6 ± 0.4 kg/m3 | 1237.2 ± 0.4 kg/m3 | 1233.8 ± 0.4 kg/m3 | 1227 ± 0.4 kg/m3 | 1223.7 ± 0.4 kg/m3 |  |  |  |  |  |  |  |  |
| 361.1 ± 5.6 J/K/mol | 363.2 ± 5.6 J/K/mol | 365.3 ± 5.7 J/K/mol | 367.4 ± 5.7 J/K/mol | 369.6 ± 5.7 J/K/mol | 371.8 ± 5.8 J/K/mol | 1376.9 ± 0.6 kg/m3 | CCn1cc[n+](C)c1.O=S(=O)([O-])C(F)(F)F [1-ethyl-3-methylimidazolium trifluoromethanesulfonate] | 1389.5 ± 0.6 kg/m3 | 1385.3 ± 0.6 kg/m3 | 1381.1 ± 0.6 kg/m3 | 1372.7 ± 0.6 kg/m3 | 1368.6 ± 0.6 kg/m3 |  |  |  |  |  |  |  |  |
| 75.4 ± 1.2 J/K/mol | 75.3 ± 1.2 J/K/mol | 75.3 ± 1.2 J/K/mol | 75.2 ± 1.2 J/K/mol | 75.2 ± 1.2 J/K/mol | 75.3 ± 1.2 J/K/mol | 994.1 ± 0.3 kg/m3 | O [water] |  |  |  |  |  |  |  |  |  |  |  |  |  |

| SMILES | molar heat capacity at constant pressure ([1]; 293.15 K) | molar heat capacity at constant pressure ([1]; 298.15 K) | molar heat capacity at constant pressure ([1]; 303.15 K) | molar heat capacity at constant pressure ([1]; 308.15 K) | molar heat capacity at constant pressure ([1]; 313.15 K) | molar heat capacity at constant pressure ([1]; 318.15 K) | mass density ([2]; 308.15 K) | mass density ([2]; 293.15 K) | mass density ([2]; 298.15 K) | mass density ([2]; 303.15 K) | mass density ([2]; 313.15 K) | mass density ([2]; 318.15 K) | excess molar enthalpy ([3]; x1 = 0.1023) | excess molar enthalpy ([3]; x1 = 0.2013) | excess molar enthalpy ([3]; x1 = 0.3036) | excess molar enthalpy ([3]; x1 = 0.4004) | excess molar enthalpy ([3]; x1 = 0.4891) | excess molar enthalpy ([3]; x1 = 0.5761) | excess molar enthalpy ([3]; x1 = 0.6659) | excess molar enthalpy ([3]; x1 = 0.8154) |
| --- | --- | --- | --- | --- | --- | --- | --- | --- | --- | --- | --- | --- | --- | --- | --- | --- | --- | --- | --- | --- |
| CCCCn1cc[n+](C)c1.COS(=O)(=O)[O-] [1-butyl-3-methylimidazolium methyl sulfate] | 413.7 ± 6.4 J/K/mol | 416.2 ± 6.4 J/K/mol | 418.5 ± 6.5 J/K/mol | 420.9 ± 6.5 J/K/mol | 423.3 ± 6.6 J/K/mol | 425.6 ± 6.6 J/K/mol | 1200.8 ± 0.4 kg/m3 | 1210.7 ± 0.4 kg/m3 | 1207.4 ± 0.4 kg/m3 | 1204.1 ± 0.4 kg/m3 | 1197.5 ± 0.4 kg/m3 | 1194.2 ± 0.4 kg/m3 |  |  |  |  |  |  |  |  |
| CCCCn1cc[n+](C)c1.O=S(=O)([O-])C(F)(F)F [1-butyl-3-methylimidazolium trifluoromethanesulfonate] | 421.6 ± 6.5 J/K/mol | 424.1 ± 6.6 J/K/mol | 426.7 ± 6.6 J/K/mol | 429.5 ± 6.7 J/K/mol | 432.4 ± 6.7 J/K/mol | 435.5 ± 6.7 J/K/mol | 1289.7 ± 0.5 kg/m3 | 1301.6 ± 0.5 kg/m3 | 1297.6 ± 0.5 kg/m3 | 1293.7 ± 0.5 kg/m3 | 1285.8 ± 0.5 kg/m3 | 1281.9 ± 0.5 kg/m3 |  |  |  |  |  |  |  |  |
